Read-outs that look alike come from different tables or passages of the source. Numbered stars: 1 amine (or outer) side, 2 acyl side, 3 side chain; on linkers, the order of the positions; unused ones are H or OH. Square brackets hold non-standard residues; d marks the D form. Ends that are not written are not given here. Peptide text beside a SMILES is read from it. Gly(N-CH2CH2-imidazol-4-yl) = O=C(O)CNCCc1c[nH]cn1; X1 = CC(C)[C@H](C)N(CC(=O)[*:2])[*:1]; Nspe = C[C@H](NCC(=O)O)c1ccccc1; Nphe = O=C(O)CNCc1ccccc1; Nlys = NCCCCNCC(=O)O
Experiments:
human erythrocytes = test: Hemolysis assay; format: cell-based
Procedure, shortened: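 Peptoid dilution series (1:2 in PBS) combined with equal volume of 20 vol % human red cells from heparinised blood, 37 °C for 1 h. Released hemoglobin measured as supernatant absorbance at 350 nm post-centrifugation, scaled between PBS-only wells and 0.2 vol % Triton X-100 total lysis.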

[1] = tested on: Staphyloccus aureus (ATCC #25923); test: Murine intraperitoneal infection model; format: in vivo; conditions: mouse, S. aureus I.P.
Procedure: Using a murine peritoneal injection mouse model, the ability of peptoids to treat infection was evaluated in vivo. The results from three separate studies of peptoid 1 and two of peptoid 1-Nhis6,12 against saline treated controls are shown in FIG. 7. The horizontal line represents the geometric mean of each population.
Murine intraperitoneal infection model. Bacteria was prepared by inoculating 5 mL of MHB with a single colony of Staphyloccus aureus (ATCC #25923) from a freshly streaked plate and grown overnight at 37 C. The following morning, the bacteria was subcultured by diluting 1/3 in MHB and grown for approximately 1 .5 hours. The bacteria were then diluted 10-fold in a 5% mucin in PBS solution and thoroughly mixed. A sample was reserved to later determine the amount of bacteria the mice received.
Mice were weighed, marked, and injected I.P. with 200 uL of S. aureus inoculum. Four hours post infection, mice were treated I.P. with 4 mg/kg peptoid (˜100 ug per mouse). The infection is allowed to proceed overnight. Mice were euthanized by CO2 asphyxiation after 24 hours, and the peritoneal cavity was exposed and lavaged with 5 mL PBS. The lavage was mixed and reserved on ice until plating. The lavages were diluted to 10^−5 (in1/10 increments) in PBS, and all dilutions were plated onto MH agar, in duplicate. 50 uL of lavage was spot plated, allowed to dry, and incubated overnight at 37° C. Colonies were counted the following day, and the CFU/ml of each sample was calculated. Plates that had too many colonies to count were assigned an arbitrary number of 1000 colonies.

MTS assay, NIH 3T3 cells = format: cell-based, mouse; conditions: mouse, NIH 3T3 fibroblast cells
Procedure, shortened: (§1)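 NIH/3T3 cells seeded at 5,000 per well, grown a day in DMEM with 10% FBS, then washed and exposed to serially diluted peptoid in HBSS together with MTS reagent. Absorbance at 490 nm read after 3 hours at 37 °C as a measure of metabolic activity; mean of six replicates.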

six strains of S. aureus = test: Broad-spectrum antibacterial MIC, summary over S. aureus strains; format: cell-based; conditions: text summary of Table 7B; 10% hemolytic dose / MIC
Procedure: The activities of ampetoids tested against BSL2 Gram-positive strains, however, compared very favorably to those of pexiganan.
Broad-spectrum antibacterial assays. MICs of compounds were determined by microdilution procedure in Mueller-Hinton broth (MHB) in accordance with CLSI M7-A6 protocols in a manner similar to that described for the screen antibacterial assays. Inoculated microtiter plates were incubated at 35° C. for 24 hours prior to the result being recorded. Four ATCC strains that were used as standards are recommended by CLSI: Pseudomonas aeruginosa ATCC 27853, Escherichia coli ATCC 25922, Staphylococcus aureus ATCC 29213 and Enterococcus faecalis ATCC 29212. Other strains from the ATCC collection include Proteus vulgaris ATCC 49132, Proteus mirabilis ATCC 35659, Klebsiella pneumoniae ATCC 33495, Enterobacter aerogenes ATCC 35029 and Serratia marcescens ATCC 13880. S. aureus NRS100 (COL) is a well characterized methicillian-resistant S. aureus (MRSA) strain. The strains S. aureus VAN1 and S. aureus VAN2, vancomycin-resistant MRSA strains that were isolated in Michigan and Pennsylvania, were the first vancomycin-resistant strains clinically isolated. S. aureus NRS 119 and S. aureus NRS 120 are linezolid-resistant isolates from the Network on Antimicrobial Resistance in S. aureus (NARSA) collection. […]

[2] = tested on: NIH 3T3 mouse fibroblast cells; test: MTS assay, NIH 3T3 cells; format: cell-based; conditions: mouse, 3 h
Procedure, shortened: as §1

Compound | HD10 (human erythrocytes) | HD50 (human erythrocytes) | selectivity ratios, range over S. aureus strains (six strains of S. aureus) | further results
C[C@@H](c1ccccc1)N(CC(=O)N(CCc1cnc[nH]1)CC(=O)N(CCCCN)CC(=O)N(CC(=O)N(CC(=O)N(CCCCN)CC(=O)N(CC(=O)N(CCc1cnc[nH]1)CC(N)=O)[C@@H](C)c1ccccc1)[C@@H](C)c1ccccc1)[C@@H](C)c1ccccc1)C(=O)CN(CCCCN)C(=O)CN(C(=O)CN(C(=O)CNCCCCN)[C@@H](C)c1ccccc1)[C@@H](C)c1ccccc1 [1-Nhis6,12, H-(Nlys-Nspe-Nspe-Nlys-Nspe-Nhis)2-NH2] (H-[Nlys][Nspe][Nspe][Nlys][Nspe][Gly(N-CH2CH2-imidazol-4-yl)][Nlys][Nspe][Nspe][Nlys][Nspe][Gly(N-CH2CH2-imidazol-4-yl)]-NH2) | >200/>200 μM | >200/>200 μM |  | bacterial counts from the peritoneal lavage ([1]; 4 mg/kg peptoid I.P. four hours post infection, 24 hours, vs saline treated controls): not reduced; mice that died prematurely during the exposure period ([1]; 4 mg/kg peptoid I.P., eleven mice for 1-Nhis6,12): eight
CC(C)[C@H](C)N(CC(=O)N(CC(=O)N(CCCCN)CC(=O)N(CC(=O)N(CC(=O)N(CCCCN)CC(=O)N(CC(=O)N(CC(=O)N(CCCCN)CC(=O)N(CC(=O)N(CC(N)=O)[C@@H](C)c1ccccc1)[C@@H](C)C(C)C)[C@@H](C)c1ccccc1)[C@@H](C)C(C)C)[C@@H](C)c1ccccc1)[C@@H](C)C(C)C)[C@@H](C)c1ccccc1)C(=O)CNCCCCN [1-Nsdp2,5,8,11, H-(Nlys-Nsdp-Nspe)4-NH2] (H-[Nlys][X1][Nspe][Nlys][X1][Nspe][Nlys][X1][Nspe][Nlys][X1][Nspe]-NH2) |  |  |  | CC50 at 3 h (MTS assay, NIH 3T3 cells): 20 µM
NCCCCNCC(=O)N(CC(=O)N(CC(=O)N(CCCCN)CC(=O)N(CC(=O)N(CC(=O)N(CCCCN)CC(=O)N(CC(=O)N(CC(=O)N(CCCCN)CC(=O)N(CC(=O)N(CC(N)=O)Cc1ccccc1)Cc1ccccc1)Cc1ccccc1)Cc1ccccc1)Cc1ccccc1)Cc1ccccc1)Cc1ccccc1)Cc1ccccc1 [1achiral, H-(Nlys-Npm-Npm)4-NH2] (H-[Nlys][Nphe][Nphe][Nlys][Nphe][Nphe][Nlys][Nphe][Nphe][Nlys][Nphe][Nphe]-NH2) | 180 µM | > 200 µM | 19-39 | 
GIGKFLKKAKKFGKAFVKILKK-NH2 [pexiganan, reference compound] |  |  | 2.8-23 | HD10 (human erythrocytes; human, 1 h, pH 7.4): 73 µM; HD50 (human erythrocytes; human, 1 h, pH 7.4): > 200 µM; ID50 [2]: 9 µM

Source: patent US20120295838A1, “Selective poly-substituted glycine antibiotics and related compositions” (priority 2008, published 2012)
